Tests used:
Format in all cases: cell-based, human
[1] = system: HUES8-derived polyhormonal cells; assay: small-molecule phenotypic screen on polyhormonal cells (high-content imaging of pro/insulin and pro/glucagon); details: 96 hours incubation, quintuplicate
Protocol: (§1) Toward this goal, we initiated a small-molecule phenotypic screen to identify compounds that either promote alpha cell identity or conversely reduce proinsulin expression in vitro. Briefly, HUES8 cells were differentiated using our polyhormonal optimized protocol. Cells were dispersed and arrayed into a 384-well plate and compounds were introduced. HUES8-derived polyhormonal cells were co-incubated with a compound library for 96 hours, after which the cells were fixed and stained for pro/glucagon and pro/insulin. High-content imaging was used to quantify the percentage of cells expressing each hormone individually and the percentage of polyhormonal cells as marked by the co-expression of both hormones (FIGS. 3A-3B). In total 43 compounds were evaluated in quintuplicate. […] To confirm that the effects of this compound were not unique to the assay format, PdbU was evaluated in the final stage of the directed differentiation protocol.
Polyhormonal cells were dispersed using TrypLE Express for 15 minutes and quenched using S3 media. The resulting single cell suspension was arrayed into a 384 well plate which had been coated with Matrigel with 50,000 cells in each well. Compounds were introduced each to 5 separate wells and incubated for 96 hours after which cells were fixed with 4% PFA and stained for pro/insulin and pro/glucagon as described above with the following modifications. Antibody incubations and washes were performed using a BioTek EL405 Plate washer and dispenser. Cells were imaged with the cellomics array scan high content imaging system. Nine fields of view were captured for each well and analyzed for cell number and fluorescent content. The percentage of cells expressing pro/insulin and pro/glucagon was calculated for each well.

polyhormonal cells = assay: PKC activator treatment in final stage (stage 6) of directed differentiation, flow cytometry
Protocol: as §1
To test the specificity of PKC activation on the results shown above, we compiled a small library of known PKC activators and evaluated their ability to similarly decrease insulin expression in polyhormonal cells. […] To that end, we treated polyhormonal cells for 28 days with either vehicle or each PKC activator and assessed the percentage of monohormonal expressing alpha cells at the end of the 28-day treatment. […]

[2] = system: HUES8 cells differentiated to SC-beta cells; assay: PdbU treatment of stage 6 SC-beta cell differentiation, flow cytometry
From the text: FIG. 7 provides flow cytometry of HUES8 cells differentiated to SC-beta cells and treated with PdbU for 14 days during stage 6.
Differentiation of hPSCs to beta cells results in a side population of polyhormonal cells. To this end we evaluated the effect of PKC activation on the differentiation of SC-beta cells. […] However, when treated with PdbU, the polyhormonal side population in the differentiation was reduced, and the percentage of monohormonal alpha cells was increased.
Cells were collected for flow cytometry analysis at various time points throughout the differentiation process. Cells were dispersed with TrypLE Express at 37° C. for 15 minutes after which trypsin was quenched with serum containing media (S1, S2, or S3). Cells were fixed in 4% PFA for 20 minutes and subsequently stored in PBS at 4° C. until staining. Staining was performed by first permeabilizing the cells in block solution (PBS+0.1% Triton X-100+5% donkey serum) for 40 minutes. Cells were then incubated with primary antibodies in block solution for 1 hour at RT, washed twice with PBST and incubated with secondary antibody in block solution for 1 hour at RT. Cells were then washed in three times and resuspended in PBST at a concentration of 1×10^6 cells/ml. Stained cells were analyzed using the Accuri C6 or Attune flow cytometers. Antibody concentrations used were as follows. Pro/insulin was assessed using an antibody that recognizes the c-peptide epitope from the Iowa Hybridoma Bank and used at a concentration of 1:300. Pro/glucagon was assessed using an antibody that recognizes the GLP-2 (Santa Cruz) or glucagon (Manufacturer) epitopes and used at a concentration of 1:300. Secondary antibodies used were a donkey-anti-goat-Alexaflour 488 (1:500) and a donkey-anti-rat-Alexaflour 647 (1:500).

SC-alpha cells = assay: glucagon secretion of SC-alpha cells with glucagon secretion modulators
From the text: To evaluate the ability of SC-alpha cells to respond to physiological conditions, we screened a number of glucagon secretion modulators and evaluated the effect on glucagon secretion. In the human islet, alpha cells secrete glucagon in response to low glucose conditions. […] Additionally, alpha cells respond to paracrine inhibitory signaling from delta cells through the hormone somatostatin resulting in suppressed glucagon secretion.
A number of pharmacological compounds have been developed to modulate glucagon secretion. We evaluated the effect of these compounds on SC-alpha cells to determine how well SC-alpha cells recapitulate the functional response of alpha cells (FIG. 4C).
Human islets or differentiated polyhormonal or SC-alpha cells were washed twice in low-glucose (2.8 mM) Krebs Ringer (KRB) buffer (128 mM NaCl, 5 mM KCl, 2.7 mM CaCl2, 1.2 mM MgSO4, 1 mM Na2HPO4, 1.2 mM KH2PO4, 5 mM NaHCO3, 10 mM HEPES, 0.1% BSA in milliQ). Cells were then loaded into 24 well transwell inserts and fasted in low glucose KRB for 1 hour at 37° C. Clusters were washed once in low glucose KRB and then incubated in low glucose KRB for 1 hour at 37° C. […] Cells were then dispersed and counted using a vicell automated cell counter. Collected supernatants were analyzed by ELISA for Insulin and/or glucagon and normalized to cell number.

[3] = stage 6 SC-beta cells treated with PdbU

SMILES | percentage of cells expressing pro/glucagon [1] | percentage of polyhormonal cells (cells expressing both pro/insulin and pro/glucagon) [1] | percentage of pro/insulin expressing cells [1] | population of polyhormonal cells induced to reduce insulin expression (polyhormonal cells; 28 day treatment, stage 6, vs. 23±3% (comparison)) | percentage of monohormonal SC-alpha cells after withdrawal of PdbU (polyhormonal cells; cultured in the absence of PdbU for 7 days) | percentage of Nkx6.1/C-peptide co-positive cells (number of beta cells) ([2]; PdbU for 14 days during stage 6) | percentage of monohormonal alpha cells in the SC-beta differentiation [2, 3] | polyhormonal side population in the SC-beta differentiation [2, 3] | glucagon secretion from SC-alpha cells (SC-alpha cells)
CCCC(=O)O[C@@H]1[C@@H](C)[C@@]2(O)[C@@H](C=C(CO)C[C@]3(O)C(=O)C(C)=C[C@@H]23)[C@@H]2C(C)(C)[C@]12OC(=O)CCC [PdbU] | increase | significantly reduced | significantly decrease | 46±4% | did not significantly reduce | did not have a significant effect | increased | reduced | –
COc1ccccc1OCC(O)CN1CCN(CC(=O)Nc2c(C)cccc2C)CC1 (stereo not drawn) [ranolazine] | – | – | – | – | – | – | – | – | increase glucagon secretion
